Data on four compounds can be found in publication PMC8708252, “Silymarin Dehydroflavonolignans Chelate Zinc and Partially Inhibit Alcohol Dehydrogenase” (Nutrients, 2021).

Type in all cases: biochemical
Assay [1] addresses T1, bovine glutamate dehydrogenase type I (GDH) (Bos taurus, UniProt P00366).
T1 construct: gene GLUD1
Kind of assay: NADH absorbance ([…] nm) assay with and without […] zinc.

Assay [2] deals with T2, equine alcohol dehydrogenase (ADH) (Equus caballus, UniProt P00327).
T2 construct: recombinant equine ADH
Kind of assay: NADH absorbance ([…] nm) ethanol oxidation assay with recombinant enzyme.

For assay [3], the target named is T2, equine alcohol dehydrogenase (ADH). The description is as above. This is another data set of the same source.
Assay [4] shares this target. Described as above. This is another data set of the same source.
Assay [5] concerns the target T3, yeast alcohol dehydrogenase (ADH) (Saccharomyces cerevisiae, UniProt P00330).
T3 construct: gene ADH1
T3 sequence (P00330 2-348): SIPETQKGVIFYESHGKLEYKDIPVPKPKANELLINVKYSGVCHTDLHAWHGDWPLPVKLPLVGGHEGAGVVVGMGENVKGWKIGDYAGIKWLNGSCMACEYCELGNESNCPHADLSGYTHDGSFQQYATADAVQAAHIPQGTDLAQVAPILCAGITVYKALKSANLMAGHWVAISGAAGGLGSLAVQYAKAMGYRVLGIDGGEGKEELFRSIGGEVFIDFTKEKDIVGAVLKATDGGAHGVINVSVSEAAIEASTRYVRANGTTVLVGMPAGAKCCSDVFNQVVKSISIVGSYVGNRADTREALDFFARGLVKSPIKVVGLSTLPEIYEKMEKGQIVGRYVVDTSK
Kind of assay: NADH absorbance ([…] nm) ethanol oxidation assay with isolated enzyme.

T2 sequence (P00327 2-375): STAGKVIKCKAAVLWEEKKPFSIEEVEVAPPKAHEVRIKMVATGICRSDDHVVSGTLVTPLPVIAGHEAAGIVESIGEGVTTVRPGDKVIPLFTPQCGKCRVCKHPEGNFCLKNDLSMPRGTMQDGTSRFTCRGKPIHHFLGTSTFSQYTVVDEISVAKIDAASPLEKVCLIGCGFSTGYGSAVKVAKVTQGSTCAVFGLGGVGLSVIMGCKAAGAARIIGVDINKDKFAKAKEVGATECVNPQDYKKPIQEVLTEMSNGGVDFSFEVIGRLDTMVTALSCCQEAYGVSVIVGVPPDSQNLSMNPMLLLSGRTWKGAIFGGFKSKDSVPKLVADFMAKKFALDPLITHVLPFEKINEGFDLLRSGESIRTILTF
T1 sequence (P00366 58-558): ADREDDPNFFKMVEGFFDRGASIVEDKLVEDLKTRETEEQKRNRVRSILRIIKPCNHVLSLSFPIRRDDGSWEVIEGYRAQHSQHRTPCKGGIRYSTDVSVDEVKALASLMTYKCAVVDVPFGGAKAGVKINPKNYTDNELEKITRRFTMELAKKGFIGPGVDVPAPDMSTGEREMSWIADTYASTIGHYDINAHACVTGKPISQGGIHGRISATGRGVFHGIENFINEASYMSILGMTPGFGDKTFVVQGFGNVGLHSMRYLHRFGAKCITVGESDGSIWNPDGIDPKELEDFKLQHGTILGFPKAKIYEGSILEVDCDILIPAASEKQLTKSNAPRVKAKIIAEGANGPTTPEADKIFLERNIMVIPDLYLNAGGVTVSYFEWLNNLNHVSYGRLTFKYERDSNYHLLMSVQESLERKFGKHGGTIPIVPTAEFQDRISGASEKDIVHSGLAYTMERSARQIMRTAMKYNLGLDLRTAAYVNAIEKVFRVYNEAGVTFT

For `COc1cc(C2Oc3cc(-c4oc5cc(O)cc(O)c5c(=O)c4O)ccc3OC2CO)ccc1O` (racemic) [DHS, 2,3-dehydrosilybin], in assay [1], the “NADH absorbance (340 nm) assay with and without 150 μM zinc” value is on record as “they were particularly potent inhibitors of the enzyme itself”.
With `COc1cc([C@H]2Oc3cc(-c4oc5cc(O)cc(O)c5c(=O)c4O)ccc3O[C@@H]2CO)ccc1O` [DHS-A, 2,3-dehydrosilybin A], the inhibition at 10 µM in assay [2] was roughly 20%.
Consider `COc1cc([C@@H]2Oc3cc(-c4oc5cc(O)cc(O)c5c(=O)c4O)ccc3O[C@H]2CO)ccc1O` [DHS-B, 2,3-dehydrosilybin B], for which, in assay [3], the “NADH absorbance (340 nm) ethanol oxidation assay with recombinant enzyme” value is reported as “Inhibition of equine ADH by active flavonolignans”.
`Cc1cn[nH]c1` [fomepizole]: the results for the IC50 in assay [4] and in assay [5] were 0.00525 mM and 14 mM, respectively.
